From patent US12630492B2, “Cannabinoid derivatives” (CANOPY GROWTH CORPORATION, priority 2019, dated 2026) come the findings set out here.

Read-outs that look alike come from different tables or passages of the source. Where only a bound is given, the exact number is not on record here.

Experiment [1] deals with T1, human CB1 receptor (Homo sapiens, UniProt P21554).
T1 construct: host or cells: CHO-K1 (Chinese hamster ovary) cells, stably transfected; membranes prepared in house
The experiment in a line: CB1 radioligand competitive binding assay ([3H]CP 55,940 displacement). The following applies: for Selectivity CB1: fold difference between CB1 and CB2 binding, printed in column of receptor with higher affinity, 1.00 in both = same affinity.

Experiment [2] concerns the target T2, human CB2 receptor (Homo sapiens, UniProt P34972).
T2 construct: host or cells: CHO-K1 (Chinese hamster ovary) cells, stably transfected; membranes prepared in house
The experiment in a line: CB2 radioligand competitive binding assay ([3H]CP 55,940 displacement). The following applies: for Selectivity CB2: fold difference between CB1 and CB2 binding, printed in column of receptor with higher affinity, 1.00 in both = same affinity.

The mark [3] stands for this setting: [3H]CP 55,940 displacement, membranes of CHO-K1 cells expressing human CB1 receptor, read-out: CB1 IC50.
Setting [4] is: [3H]CP 55,940 displacement, membranes of CHO-K1 cells expressing human CB2 receptor, read-out: CB2 IC50.

T2 sequence (P34972 whole entry): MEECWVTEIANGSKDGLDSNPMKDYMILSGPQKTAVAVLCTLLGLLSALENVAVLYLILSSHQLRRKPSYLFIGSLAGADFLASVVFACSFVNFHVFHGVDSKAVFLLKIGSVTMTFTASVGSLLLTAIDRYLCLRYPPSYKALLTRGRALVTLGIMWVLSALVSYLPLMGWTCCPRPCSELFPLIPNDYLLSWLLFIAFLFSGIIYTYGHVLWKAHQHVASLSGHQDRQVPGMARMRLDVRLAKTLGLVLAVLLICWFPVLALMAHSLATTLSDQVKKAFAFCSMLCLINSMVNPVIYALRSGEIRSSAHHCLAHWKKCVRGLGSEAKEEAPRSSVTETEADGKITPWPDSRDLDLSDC
T1 sequence (P21554 whole entry): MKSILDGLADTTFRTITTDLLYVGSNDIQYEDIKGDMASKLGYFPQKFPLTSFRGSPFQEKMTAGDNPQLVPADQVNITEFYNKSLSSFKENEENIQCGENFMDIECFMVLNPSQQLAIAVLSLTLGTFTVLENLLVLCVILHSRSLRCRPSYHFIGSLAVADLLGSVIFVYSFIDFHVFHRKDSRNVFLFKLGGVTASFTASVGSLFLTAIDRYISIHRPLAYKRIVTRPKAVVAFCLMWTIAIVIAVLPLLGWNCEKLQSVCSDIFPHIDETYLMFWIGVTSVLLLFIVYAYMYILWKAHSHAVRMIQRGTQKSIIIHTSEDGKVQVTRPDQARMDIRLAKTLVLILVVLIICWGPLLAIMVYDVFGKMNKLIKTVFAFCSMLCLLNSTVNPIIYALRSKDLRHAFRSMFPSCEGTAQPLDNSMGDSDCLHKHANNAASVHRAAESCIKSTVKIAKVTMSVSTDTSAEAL

For `C=C(C)C1CCC(C)=CC1c1c(O)cc(CCCCC)cc1OCOCC` (stereo not shown) [Compound 17d, 6-(ethoxymethoxy)-5′-methyl-4-pentyl-2′-(prop-1-en-2-yl)-1′,2′,3′,4′-tetrahydro-[1,1′-biphenyl]-2-ol], the half-maximal inhibitory concentration (IC50) is 1 to 9.99 µM in experiment [1] (setting [3]) and 0.05 to 0.99 µM in experiment [2] (setting [4]). In addition, in experiment [2], the “Selectivity CB2” value turned out to be 1.53.
Regarding `C=C(C)C1CCC(C)=CC1c1c(O)cc(CCCCC)cc1OCOC(=O)C(C)(C)C` (stereo not shown) [Compound 8d, ((6-hydroxy-5′-methyl-4-pentyl-2′-(prop-1-en-2-yl)-1′,2′,3′,4′-tetrahydro-[1,1′-biphenyl]-2-yl)oxy)methyl pivalate], the IC50 in experiment [1] (setting [3]) and in experiment [2] (setting [4]) was 0.05 to 0.99 µM in each case. Moreover, the “Selectivity CB2” value in experiment [2] is on record as 1.76.
With `CCCCCc1cc(OCOCC)c(-c2cccc(C)c2)c(OCOCC)c1` [17′a, 2,6-bis(ethoxymethoxy)-3′-methyl-4-pentyl-1,1′-biphenyl], the IC50 is 1 to 9.99 µM in experiment [1] (setting [3]) and 0.05 to 0.99 µM in experiment [2] (setting [4]). In addition, the “Selectivity CB2” value in experiment [2] was determined as 8.97.
On the same counts, the results for `CCCCCc1cc(OCOCCOC)c(-c2cccc(C)c2)c(OCOCCOC)c1` [2′a, 2,6-bis((2-methoxyethoxy)methoxy)-3′-methyl-4-pentyl-1,1′-biphenyl] are greater than 10 µM, 0.05 to 0.99 µM and 19.73.
Taken in the same sequence, the figures for `CCCCCc1cc(O)c(C2C=C(C)CCC2)c(OCOC(=O)OCC)c1` (stereo not shown) [Compound 5c, ethyl (((6-hydroxy-5′-methyl-4-pentyl-1′,2′,3′,4′-tetrahydro-[1,1′-biphenyl]-2-yl)oxy)methyl) carbonate] were 1 to 9.99 µM, 0.05 to 0.99 µM and 9.09.
Taken in the same sequence, the figures for `C=C(C)C1CCC(C)=CC1c1c(OCOCCOC)cc(CCCCC)cc1OCOCCOC` (stereo not shown) [2′d, 2′,6′-bis((2-methoxyethoxy)methoxy)-5-methyl-4′-pentyl-2-(prop-1-en-2-yl)-1,2,3,4-tetrahydro-1,1′-biphenyl] were 1 to 9.99 µM, 0.05 to 0.99 µM and 2.50.
In the case of `C=C(C)C1CCC(C)=CC1c1c(O)cc(CCCCC)cc1OCOCCOC` (stereo not shown) [Compound 2d, 6-((2-methoxyethoxy)methoxy)-5′-methyl-4-pentyl-2′-(prop-1-en-2-yl)-1′,2′,3′,4′-tetrahydro-[1,1′-biphenyl]-2-ol], the 50% inhibitory concentration (IC50) in experiment [1] (setting [3]) and in experiment [2] (setting [4]) was 1 to 9.99 µM in each case. Further, the “Selectivity CB2” value in experiment [2] worked out at 1.59.
As for `C=C(C)C1CCC(C)=CC1c1c(O)cc(C(C)(C)CCCCCC)cc1OCOC(=O)C(C)(C)C` (stereo not shown) [Compound 21d, ((6-hydroxy-5′-methyl-4-(2-methyloctan-2-yl)-2′-(prop-1-en-2-yl)-1′,2′,3′,4′-tetrahydro-[1,1′-biphenyl]-2-yl)oxy)methyl pivalate], the IC50 in experiment [1] (setting [3]) and in experiment [2] (setting [4]) was 1 to 9.99 µM each time. The “Selectivity CB2” value in experiment [2] was found to be 1.25.
On to `C=C(C)[C@@H]1CCC(C)=C[C@H]1c1c(O)cc(CCC)cc1OCOC(=O)C(C)(C)C` [Compound 23d, ((6-hydroxy-5′-methyl-2′-(prop-1-en-2-yl)-4-propyl-1′,2′,3′,4′-tetrahydro-[1,1′-biphenyl]-2-yl)oxy)methyl pivalate], for which the IC50 in experiment [1] (setting [3]) and in experiment [2] (setting [4]) was 1 to 9.99 µM throughout. The “Selectivity CB2” value in experiment [2] is listed as 2.50.
Consider `CCCCCc1cc(O)c(-c2cccc(C)c2)c(OCOCC)c1` [Compound 17a, 6-(ethoxymethoxy)-3′-methyl-4-pentyl-[1,1′-biphenyl]2-ol], for which the IC50 in experiment [1] (setting [3]) and in experiment [2] (setting [4]) was 1 to 9.99 µM throughout. Besides, the “Selectivity CB2” value in experiment [2] is reported as 5.20.
As to `CCCCCc1cc(OCOCCOC)c(C2C=C(C)CCC2)c(OCOCCOC)c1` (stereo not shown) [2′c, 2′,6′-bis((2-methoxyethoxy)methoxy)-5-methyl-4′-pentyl-1,2,3,4-tetarhydro-1,1′-biphenyl], the IC50 in experiment [1] (setting [3]) was 0.05 to 0.99 µM; in experiment [2] (setting [4]), less than 0.05 µM. Moreover, in experiment [2], the “Selectivity CB2” value stood at 6.38.
Consider `CCCCCc1cc(OCOC(=O)C(C)(C)C)c(C2C=C(C)CCC2)c(OCOC(=O)C(C)(C)C)c1` (stereo not shown) [8′c, ((5′-methyl-4-pentyl-1′,2′,3′,4′-tetrahydro-[1,1′-biphenyl]-2,6-diyl)bis(oxy))bis(methylene)bis(2,2-dimethylpropanoate)], for which the half-inhibitory concentration (IC50) in experiment [1] (setting [3]) is 0.05 to 0.99 µM; in experiment [2] (setting [4]), less than 0.05 µM. The “Selectivity CB2” value in experiment [2] is 6.38.
In the case of `C=C(C)[C@@H]1CCC(C)=C[C@H]1c1c(O)cc(CCCCC)cc1OCOC(=O)OCC` [Compound 5d, ethyl (((6-hydroxy-5′-methyl-4-pentyl-2′-(prop-1-en-2-yl)-1′,2′,3′,4′-tetrahydro-[1,1′-biphenyl]-2-yl)oxy)methyl) carbonate], in experiment [1], the IC50 was 1 to 9.99 µM. Also, in experiment [2], the IC50 was 1 to 9.99 µM and the “Selectivity CB2” value amounted to 2.00.
In the case of `C=C(C)[C@@H]1CCC(C)=C[C@H]1c1c(O)cc(CCC)cc1OCOC(=O)OCC` [Compound 24d, ethyl (((6-hydroxy-5′-methyl-2′-(prop-1-en-2-yl)-4-propyl-1′,2′,3′,4′-tetrahydro-[1,1′-biphenyl]-2-yl)oxy)methyl) carbonate], the results for the IC50 in experiment [1] (setting [3]) and in experiment [2] (setting [4]) were 1 to 9.99 µM and 0.05 to 0.99 µM, respectively. The “Selectivity CB2” value in experiment [2] was 1.52.
On the same counts, the results for `C=C(C)C1CCC(C)=CC1c1c(OCN(C(=O)OC)c2ccccc2)cc(C(C)(C)CCCCCC)cc1OCN(C(=O)OC)c1ccccc1` (stereo not shown) [20′d, dimethyl (((5′-methyl-4-(2-methyloctan-2-yl)-2′-(prop-1-en-2-yl)-1′,2′,3′,4′-tetrahydro-[1,1′-biphenyl]-2,6-diyl)bis(oxy))bis(methylene))bis(phenylcarbamate)] are greater than 10 µM, 1 to 9.99 µM and 1.25.
On the same counts, the results for `C=C(C)C1CCC(C)=CC1c1c(OCOCC)cc(CCCCC)cc1OCOCC` (stereo not shown) [17′d, 2′,6′-bis(ethoxymethoxy)-5-methyl-4′-pentyl-2-(prop-1-en-2-yl)-1,2,3,4-tetrahydro-1,1′-biphenyl] are 1 to 9.99 µM, 0.05 to 0.99 µM and 3.03.
Taken in the same sequence, the figures for `CCCCCc1cc(O)c(C2C=C(C)CCC2)c(OCOCC)c1` (stereo not shown) [Compound 17c, 6-(ethoxymethoxy)-5′-methyl-4-pentyl-1′,2′,3′,4′-tetrahydro-[1,1′-biphenyl]-2-ol] were 1 to 9.99 µM, 0.05 to 0.99 µM and 2.47.
Turning to `C=C(C)[C@@H]1CCC(C)=C[C@H]1c1c(O)cc(C(C)(C)CCCCCC)cc1OCOC(=O)OCC` [Compound 22d, ethyl (((6-hydroxy-5′-methyl-4-(2-methyloctan-2-yl)-2′-(prop-1-en-2-yl)-1′,2′,3′,4′-tetrahydro-[1,1′-biphenyl]-2-yl)oxy)methyl) carbonate], the IC50 was 0.05 to 0.99 µM in experiment [1] (setting [3]) and less than 0.05 µM in experiment [2] (setting [4]). Also, in experiment [2], the “Selectivity CB2” value was determined as 1.67.
Taken in the same sequence, the figures for `C=C(C)C1CCC(C)=CC1c1c(O)cc(CCCCC)cc1OCOC1CCCCC1` (stereo not shown) [Compound 18d, 6-((cyclohexyloxy)methoxy)-5′-methyl-4-pentyl-2′-(prop-1-en-2-yl)-1′,2′,3′,4′-tetrahydro-[1,1′-biphenyl]-2-ol] were 1 to 9.99 µM, 0.05 to 0.99 µM and 3.23.
As for `C=C(C)[C@@H]1CCC(C)=C[C@H]1c1c(O)cc(CCCCC)cc1OCN(C(=O)OC)c1ccccc1` [Compound 14d, methyl (((6-hydroxy-5′-methyl-4-pentyl-2′-(prop-1-en-2-yl)-1′,2′,3′,4′-tetrahydro-[1,1′-biphenyl]-2-yl)oxy)methyl)(phenyl)carbamate], in experiment [1], the IC50 was in the range of 0.05 to 0.99 µM and the “Selectivity CB1” value was determined as 2.53. In experiment [2], this compound returned an IC50 of 0.05 to 0.99 µM.
Consider `CCCCCc1cc(O)c(C2C=C(C)CCC2)c(OCN(C(=O)OC)c2ccccc2)c1` (stereo not shown) [Compound 14c, methyl (((6-hydroxy-5′-methyl-4-pentyl-1′,2′,3′,4′-tetrahydro-[1,1′-biphenyl]-2-yl)oxy)methyl)(phenyl)carbamate], for which the concentration for half-maximal inhibition (IC50) in experiment [1] (setting [3]) and in experiment [2] (setting [4]) was 1 to 9.99 µM in each case. For the same compound, the “Selectivity CB1” value in experiment [1] is recorded as 1.36.
In the case of `CCCCCc1cc(O)c(C2C=C(C)CCC2)c(OCOC(=O)C(C)(C)C)c1` (stereo not shown) [Compound 8c, ((6-hydroxy-5′-methyl-4-pentyl-1′,2′,3′,4′-tetrahydro-[1,1′-biphenyl]-2-yl)oxy)methyl pivalate], the figures for the IC50 in experiment [1] (setting [3]) and in experiment [2] (setting [4]) were 0.05 to 0.99 µM and less than 0.05 µM, respectively. Moreover, the “Selectivity CB2” value in experiment [2] was found to be 8.85.
Taken in the same sequence, the figures for `C=C(C)C1CCC(C)=CC1c1c(O)cc(C(C)(C)CCCCCC)cc1OCN(C(=O)OC)c1ccccc1` (stereo not shown) [Compound 20d, methyl (((6-hydroxy-5′-methyl-4-(2-methyloctan-2-yl)-2′-(prop-1-en-2-yl)-1′,2′,3′,4′-tetrahydro-[1,1′-biphenyl]-2-yl)oxy)methyl)(phenyl)carbamate] were 1 to 9.99 µM, 0.05 to 0.99 µM and 1.94.
Taken in the same sequence, the figures for `C=C(C)C1CCC(C)=CC1c1c(OCOC(=O)C(C)(C)C)cc(CCCCC)cc1OCOC(=O)C(C)(C)C` (stereo not shown) [8′d, ((5′-methyl-4-pentyl-2′-(prop-1-en-2-yl)-1′,2′,3′,4′-tetrahydro-[1,1′-biphenyl]-2,6-diyl)bis(oxy))bis(methylene) bis(2,2-dimethylpropanoate)] were 1 to 9.99 µM, 1 to 9.99 µM and 2.00.
Taken in the same sequence, the figures for `CCCCCc1cc(O)c(C2C=C(C)CCC2)c(OCOCCOC)c1` (stereo not shown) [Compound 2c, 6-((2-methoxyethoxy)methoxy)-5′-methyl-4-pentyl-1′,2′,3′,4′-tetrahydro-[1,1′-biphenyl]-2-ol] were 1 to 9.99 µM, 0.05 to 0.99 µM and 13.33.
In the case of `CCCCCc1cc(OCOCC)c(C2C=C(C)CCC2)c(OCOCC)c1` (stereo not shown) [17′c, 2′,6′-bis(ethoxymethoxy)-5-methyl-4′-pentyl-1,2,3,4-tetrahydro-1,1′-biphenyl], the IC50 in experiment [1] (setting [3]) lay within 1 to 9.99 µM.

What is called IC50 is the midpoint of a concentration-inhibition curve.
